The supplement of paper PMC10307832

Assays:
Test in all cases: relative viability (nuclei count vs DMSO), 5 days (fraction); higher = more cells survive
[1] = compound: Cc1nc(C(=O)NCC(=O)O)c(O)c2ccc(Oc3ccccc3)cc12 [FG-4592] + CS(=O)(=O)CCNCc1ccc(-c2ccc3ncnc(Nc4ccc(OCc5cccc(F)c5)c(Cl)c4)c3c2)o1 [Lapatinib] (partner 2 µM)
Outline: (§1)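 Lung cancer cell lines in 1536-well plates got either a single drug or a fixed anchor-drug dose together with five library-drug doses (not always all listed) in √10 steps, by pin tool, on the day after seeding. Nuclei were counted after 5 days, and relative viability is the treated-to-vehicle ratio of nuclei counts. Values are medians of duplicate plates.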

[2] = compound: CC1=CC(=C(N1C2=CC=C(C=C2)Cl)C)C(=O)CN3CCCCC3 [IU1-47] + N=C(N)NC(=N)NCCc1ccccc1 [Phenformin] (partner 250 µM)
Outline: as §1

[3] = compound: CC1=CC(=C(N1C2=CC=C(C=C2)Cl)C)C(=O)CN3CCCCC3 [IU1-47] + O=C(CCCCCCC(=O)Nc1ccccc1)NO [Vorinostat] (partner 1 µM)
Outline: as §1

[4] = compound: Cc1nc(C(=O)NCC(=O)O)c(O)c2ccc(Oc3ccccc3)cc12 [FG-4592] + O=C(CCCCCCC(=O)Nc1ccccc1)NO [Vorinostat] (partner 1 µM)
Outline: as §1

In the case of A-427, the relative viability ([1]; first compound 0.08 µM) is reported as 0.975, the relative viability ([1]; first compound 0.253 µM) is reported as 1.05 and the relative viability ([1]; first compound 0.8 µM) is reported as 0.943. For the same cell line, the relative viability ([1]; first compound 2.53 µM) was 0.953, the relative viability ([1]; first compound 8 µM) was 1.03 and the relative viability ([2]; first compound 0.08 µM) was 0.342. For the same cell line, the relative viability ([2]; first compound 0.253 µM) was 0.313, the relative viability ([2]; first compound 0.8 µM) was 0.306 and the relative viability ([2]; first compound 8 µM) was 0.229. It also gave a relative viability ([3]; first compound 0.08 µM) of 0.894, a relative viability ([3]; first compound 0.253 µM) of 0.847 and a relative viability ([3]; first compound 0.8 µM) of 0.841. For the same cell line, the relative viability ([3]; first compound 2.53 µM) was 0.883, the relative viability ([3]; first compound 8 µM) was 0.836 and the relative viability ([4]; first compound 0.08 µM) was 0.84. The relative viability ([4]; first compound 0.253 µM) was 0.85, the relative viability ([4]; first compound 0.8 µM) was 0.845 and the relative viability ([4]; first compound 2.53 µM) was 0.806. It also gave a relative viability ([4]; first compound 8 µM) of 0.78.
Work on NCI-H2347 yielded a relative viability ([1]; first compound 0.08 µM) of 0.906, a relative viability ([1]; first compound 0.8 µM) of 0.848 and a relative viability ([1]; first compound 2.53 µM) of 0.917. It also gave a relative viability ([1]; first compound 8 µM) of 0.974, a relative viability ([2]; first compound 0.08 µM) of 0.387 and a relative viability ([2]; first compound 0.253 µM) of 0.413. For the same cell line, the relative viability ([2]; first compound 0.8 µM) was 0.336, the relative viability ([2]; first compound 2.53 µM) was 0.496 and the relative viability ([2]; first compound 8 µM) was 0.345. The relative viability ([3]; first compound 0.08 µM) was 0.668, the relative viability ([3]; first compound 0.253 µM) was 0.628 and the relative viability ([3]; first compound 0.8 µM) was 0.662. For the same cell line, the relative viability ([3]; first compound 2.53 µM) was 0.444, the relative viability ([3]; first compound 8 µM) was 0.528 and the relative viability ([4]; first compound 0.08 µM) was 0.519. It also gave a relative viability ([4]; first compound 0.253 µM) of 0.421, a relative viability ([4]; first compound 0.8 µM) of 0.52 and a relative viability ([4]; first compound 2.53 µM) of 0.41. The relative viability ([4]; first compound 8 µM) was 0.585.
NCI-H1355 was tested, and the relative viability ([1]; first compound 0.08 µM) was 1.03, the relative viability ([1]; first compound 0.253 µM) was 0.939 and the relative viability ([1]; first compound 2.53 µM) was 0.955. It also gave a relative viability ([1]; first compound 8 µM) of 0.823, a relative viability ([2]; first compound 0.08 µM) of 0.432 and a relative viability ([2]; first compound 0.253 µM) of 0.501. It also gave a relative viability ([2]; first compound 0.8 µM) of 0.441, a relative viability ([2]; first compound 8 µM) of 0.398 and a relative viability ([3]; first compound 0.08 µM) of 0.72. For the same cell line, the relative viability ([3]; first compound 0.253 µM) was 0.646, the relative viability ([3]; first compound 0.8 µM) was 0.674 and the relative viability ([3]; first compound 8 µM) was 0.518. For the same cell line, the relative viability ([4]; first compound 0.08 µM) was 0.553, the relative viability ([4]; first compound 0.253 µM) was 0.632 and the relative viability ([4]; first compound 2.53 µM) was 0.596. It also gave a relative viability ([4]; first compound 8 µM) of 0.644.
Work on NCI-H358 yielded a relative viability ([1]; first compound 0.08 µM) of 0.501, a relative viability ([1]; first compound 0.253 µM) of 0.413 and a relative viability ([1]; first compound 0.8 µM) of 0.497. The relative viability ([1]; first compound 2.53 µM) was 0.437, the relative viability ([1]; first compound 8 µM) was 0.453 and the relative viability ([2]; first compound 0.08 µM) was 0.328. For the same cell line, the relative viability ([2]; first compound 0.253 µM) was 0.323, the relative viability ([2]; first compound 0.8 µM) was 0.339 and the relative viability ([2]; first compound 2.53 µM) was 0.307. The relative viability ([2]; first compound 8 µM) was 0.274, the relative viability ([3]; first compound 0.08 µM) was 0.828 and the relative viability ([3]; first compound 0.253 µM) was 0.708. For the same cell line, the relative viability ([3]; first compound 0.8 µM) was 0.72, the relative viability ([3]; first compound 2.53 µM) was 0.781 and the relative viability ([3]; first compound 8 µM) was 0.619. For the same cell line, the relative viability ([4]; first compound 0.08 µM) was 0.61, the relative viability ([4]; first compound 0.253 µM) was 0.567 and the relative viability ([4]; first compound 0.8 µM) was 0.745. The relative viability ([4]; first compound 2.53 µM) was 0.88 and the relative viability ([4]; first compound 8 µM) was 0.716.
Cell Line PC-3 [JPC-3] has a relative viability ([1]; first compound 0.08 µM) of 0.446, a relative viability ([1]; first compound 0.253 µM) of 0.419 and a relative viability ([1]; first compound 0.8 µM) of 0.362. It also gave a relative viability ([1]; first compound 2.53 µM) of 0.402, a relative viability ([1]; first compound 8 µM) of 0.439 and a relative viability ([2]; first compound 0.08 µM) of 0.498. The relative viability ([2]; first compound 0.253 µM) was 0.463, the relative viability ([2]; first compound 0.8 µM) was 0.44 and the relative viability ([2]; first compound 2.53 µM) was 0.496. For the same cell line, the relative viability ([2]; first compound 8 µM) was 0.429, the relative viability ([3]; first compound 0.08 µM) was 0.857 and the relative viability ([3]; first compound 0.253 µM) was 1.04. The relative viability ([3]; first compound 0.8 µM) was 0.772, the relative viability ([3]; first compound 2.53 µM) was 0.691 and the relative viability ([3]; first compound 8 µM) was 0.972. For the same cell line, the relative viability ([4]; first compound 0.08 µM) was 0.705, the relative viability ([4]; first compound 0.253 µM) was 0.797 and the relative viability ([4]; first compound 2.53 µM) was 0.853. The relative viability ([4]; first compound 8 µM) was 0.823.
Work on NCI-H2228 yielded a relative viability ([1]; first compound 0.08 µM) of 1.46, a relative viability ([1]; first compound 0.253 µM) of 0.778 and a relative viability ([1]; first compound 0.8 µM) of 0.84. The relative viability ([1]; first compound 2.53 µM) was 0.844, the relative viability ([1]; first compound 8 µM) was 0.864 and the relative viability ([2]; first compound 0.08 µM) was 0.413. The relative viability ([2]; first compound 0.253 µM) was 0.434, the relative viability ([2]; first compound 0.8 µM) was 0.315 and the relative viability ([2]; first compound 2.53 µM) was 0.32. For the same cell line, the relative viability ([2]; first compound 8 µM) was 0.262, the relative viability ([3]; first compound 0.08 µM) was 0.577 and the relative viability ([3]; first compound 0.253 µM) was 0.6. It also gave a relative viability ([3]; first compound 0.8 µM) of 0.725, a relative viability ([3]; first compound 2.53 µM) of 0.692 and a relative viability ([3]; first compound 8 µM) of 0.563. For the same cell line, the relative viability ([4]; first compound 0.08 µM) was 0.592, the relative viability ([4]; first compound 0.253 µM) was 0.408 and the relative viability ([4]; first compound 0.8 µM) was 0.77. For the same cell line, the relative viability ([4]; first compound 2.53 µM) was 0.583 and the relative viability ([4]; first compound 8 µM) was 0.449.
Cell Line HOP-62 has a relative viability ([1]; first compound 0.08 µM) of 0.939, a relative viability ([1]; first compound 0.253 µM) of 1.09 and a relative viability ([1]; first compound 0.8 µM) of 1.06. The relative viability ([1]; first compound 2.53 µM) was 0.997, the relative viability ([1]; first compound 8 µM) was 1.01 and the relative viability ([2]; first compound 0.08 µM) was 0.756. It also gave a relative viability ([2]; first compound 0.253 µM) of 0.792, a relative viability ([2]; first compound 0.8 µM) of 0.719 and a relative viability ([2]; first compound 2.53 µM) of 0.675. The relative viability ([2]; first compound 8 µM) was 0.543, the relative viability ([3]; first compound 0.08 µM) was 0.693 and the relative viability ([3]; first compound 0.253 µM) was 0.675. For the same cell line, the relative viability ([3]; first compound 0.8 µM) was 0.752, the relative viability ([3]; first compound 2.53 µM) was 0.433 and the relative viability ([3]; first compound 8 µM) was 0.532. For the same cell line, the relative viability ([4]; first compound 0.08 µM) was 0.61, the relative viability ([4]; first compound 0.253 µM) was 0.686 and the relative viability ([4]; first compound 0.8 µM) was 0.451. The relative viability ([4]; first compound 2.53 µM) was 0.486 and the relative viability ([4]; first compound 8 µM) was 0.816.
For HARA, the relative viability ([1]; first compound 0.08 µM) was 0.677, the relative viability ([1]; first compound 0.253 µM) was 0.719 and the relative viability ([1]; first compound 2.53 µM) was 0.728. The relative viability ([1]; first compound 8 µM) was 0.667, the relative viability ([2]; first compound 0.08 µM) was 0.594 and the relative viability ([2]; first compound 0.253 µM) was 0.478. For the same cell line, the relative viability ([2]; first compound 0.8 µM) was 0.567, the relative viability ([2]; first compound 8 µM) was 0.537 and the relative viability ([3]; first compound 0.08 µM) was 0.421. It also gave a relative viability ([3]; first compound 0.253 µM) of 0.679, a relative viability ([3]; first compound 0.8 µM) of 0.646 and a relative viability ([3]; first compound 2.53 µM) of 0.575. The relative viability ([3]; first compound 8 µM) was 0.479, the relative viability ([4]; first compound 0.08 µM) was 0.554 and the relative viability ([4]; first compound 0.253 µM) was 0.556. The relative viability ([4]; first compound 0.8 µM) was 0.507, the relative viability ([4]; first compound 2.53 µM) was 0.662 and the relative viability ([4]; first compound 8 µM) was 0.607.
NCI-H838 gave a relative viability ([1]; first compound 0.08 µM) of 0.976, a relative viability ([1]; first compound 0.253 µM) of 1.02 and a relative viability ([1]; first compound 0.8 µM) of 0.901. For the same cell line, the relative viability ([1]; first compound 2.53 µM) was 0.822, the relative viability ([1]; first compound 8 µM) was 0.966 and the relative viability ([2]; first compound 0.08 µM) was 0.559. For the same cell line, the relative viability ([2]; first compound 0.253 µM) was 0.578, the relative viability ([2]; first compound 0.8 µM) was 0.549 and the relative viability ([2]; first compound 2.53 µM) was 0.562. For the same cell line, the relative viability ([2]; first compound 8 µM) was 0.318, the relative viability ([3]; first compound 0.08 µM) was 0.768 and the relative viability ([3]; first compound 0.253 µM) was 0.746. The relative viability ([3]; first compound 0.8 µM) was 0.834, the relative viability ([3]; first compound 2.53 µM) was 0.689 and the relative viability ([3]; first compound 8 µM) was 0.64. For the same cell line, the relative viability ([4]; first compound 0.08 µM) was 0.742, the relative viability ([4]; first compound 0.253 µM) was 0.729 and the relative viability ([4]; first compound 0.8 µM) was 0.696. The relative viability ([4]; first compound 2.53 µM) was 0.839 and the relative viability ([4]; first compound 8 µM) was 0.705.
